{"source": "patent US9517263B2", "about": "“Benzonaphthyridine-containing vaccines” (GlaxoSmithKline Biologicals SA, priority 2009, dated 2016)", "key": {"[1]": {"experiment": "Solubility of Compound 6A", "assay_type": "physicochemical", "settings": "for solubility: water, read-out: aqueous solubility"}, "Human TLR7": {"target": "T1, Human TLR7 (Homo sapiens, UniProt Q9NYK1)", "T1 construct": "expressed in transfected cells; host or cells: HEK293", "T1 sequence (Q9NYK1 27-1049)": "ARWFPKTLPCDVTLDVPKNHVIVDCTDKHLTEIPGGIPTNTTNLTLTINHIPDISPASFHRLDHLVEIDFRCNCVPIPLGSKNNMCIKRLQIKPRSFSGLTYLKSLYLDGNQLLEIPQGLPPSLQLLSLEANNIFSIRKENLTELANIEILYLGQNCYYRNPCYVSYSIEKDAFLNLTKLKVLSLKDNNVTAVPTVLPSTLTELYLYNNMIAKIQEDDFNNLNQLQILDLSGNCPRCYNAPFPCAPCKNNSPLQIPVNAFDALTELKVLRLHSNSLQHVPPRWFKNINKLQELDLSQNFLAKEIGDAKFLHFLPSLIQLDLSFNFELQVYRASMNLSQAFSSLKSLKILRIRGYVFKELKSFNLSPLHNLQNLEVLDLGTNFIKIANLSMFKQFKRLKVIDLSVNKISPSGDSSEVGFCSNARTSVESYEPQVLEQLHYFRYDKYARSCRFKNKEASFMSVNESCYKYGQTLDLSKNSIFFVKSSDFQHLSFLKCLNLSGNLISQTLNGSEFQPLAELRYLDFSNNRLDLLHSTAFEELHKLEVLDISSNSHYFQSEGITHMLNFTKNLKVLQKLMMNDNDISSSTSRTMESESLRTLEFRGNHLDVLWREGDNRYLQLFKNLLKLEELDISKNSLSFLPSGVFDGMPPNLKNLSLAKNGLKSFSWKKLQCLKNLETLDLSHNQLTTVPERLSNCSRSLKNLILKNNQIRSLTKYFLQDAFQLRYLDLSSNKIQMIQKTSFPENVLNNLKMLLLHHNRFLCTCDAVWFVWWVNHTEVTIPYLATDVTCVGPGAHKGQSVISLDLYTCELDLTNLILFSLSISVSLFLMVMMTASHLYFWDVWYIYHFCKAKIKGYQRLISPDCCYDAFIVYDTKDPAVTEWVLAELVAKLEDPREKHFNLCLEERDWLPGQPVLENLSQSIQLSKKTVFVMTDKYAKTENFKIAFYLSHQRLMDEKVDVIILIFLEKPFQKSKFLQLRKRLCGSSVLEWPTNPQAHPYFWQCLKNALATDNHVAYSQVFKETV", "experiment": "Human TLR7 EC50 in HEK293 (Table A)", "assay_type": "cell-based"}, "[2]": {"experiment": "Compound content, recovery and encapsulation efficiency by RP-HPLC", "assay_type": "physicochemical", "settings": "pellet vs supernatant after 10 mM HCl, 30 min", "quoted_text": "Compound 47 was analyzed by Reversed Phase High Performance Liquid Chromatography (RP-HPLC) using a Waters Acquity System using C18 XTerra column (Waters Corporation) and a gradient of 90% water+0.1% TFA/10% acetonitrile+0.1% TFA to 100% acetonitrile+0.1% TFA in 6 min.\nTo determine Compound 47 concentration, 100 μL of the particle suspension described above was mixed with 900 μL of DMSO and analyzed by RP-HPLC.\nTo determine encapsulation efficiency, 100 μL of the particle suspension described above was diluted to 1 mL with 10 mM HCl and rocked for 30 min at room temperature. The resulting particle suspension was centrifuged. The pellet was then dissolved in 1 mL DMSO and analyzed on the RP-HPLC system to determine the amount of encapsulated Compound 47. The supernatant was also analyzed on the RP-HPLC system to determine the amount of non-encapsulated Compound 47."}, "MenB strain NZ98": {"system": "MenB strain NZ98", "experiment": "Bactericidal assay of sera of immunized mice against the MenB strain NZ98", "assay_type": "in vivo, N. meningitidis", "settings": "delivered with PLG as encapsulated or as co-lyophilized, 25 or 100 μg", "protocol": "The PLG formulations described above (Vials 1-6) were reconstituted in 1.4 mL of water for injection with gentle mixing. 100 μL of the formulations were injected per mouse, corresponding to 10 μg of each MenB antigen and in case of formulations containing Compound 47, 25 μg or 100 μg of the adjuvant. Each mouse was immunized intramuscularly (50 μL at two sites) on days 0 and 14, and bled on day 28 and on day 56.\nFor mice injected with MenB antigen, pooled sera for each group was analyzed for bactericidal assay against the MenB strain NZ98 2 weeks post 2nd immunization.\nFor mice injected with MenB antigen, pooled sera for each group was also analyzed for bactericidal assay against the MenB strain NZ98 6 weeks post 2nd immunization."}, "[3]": {"experiment": "Pharmacokinetic profile of Compound 47 in mice (serum, lymph nodes, muscle; LC-MS)", "assay_type": "in vivo", "settings": "i.m. once, 1 or 4 mg/kg, various PLG formulations (Vials 1-5), up to 30 days"}, "[4]": {"system": "mKC, MCP-1, IL-6, IL-10, IFNg and IL-5", "experiment": "Serum cytokine levels in mice (sandwich ELISA)", "assay_type": "in vivo", "settings": "i.m., 1, 3 and 24 hours, formulated in the PLG-based particles", "protocol": "Mice were also injected intramuscularly with above-described monodispersion of Compound 47 at a dose of 100 μg Compound 47. Serum cytokine levels (mKC, MCP-1, IL-6, IL-10, IFNg and IL-5) were measured at 1, 3 and 24 hours using sandwich ELISA."}}, "note": "Like-named read-outs stand apart in the source and are kept apart here.", "data": [{"compound": "Cc1ccc2c(c1)nc(N)c1ncc(CCc3ccc(OCCOCCOCCC(F)(F)P(=O)(O)O)cc3C)cc12", "note": "[Compound 6A, 3-(2-(2-(4-(2-(5-amino-8-methylbenzo[f][1,7]naphthyridin-2-yl)ethyl)-3-methylphenoxy)ethoxy)ethoxy)-1,1-difluoropropylphosphonic acid]", "values": [{"measurement": "solubility in dichloromethane", "setting": "[1]; dichloromethane", "value": "not soluble in dichloromethane"}, {"measurement": "solubility", "setting": "[1]; as base form", "value": "< 400", "unit": "µg/mL"}, {"measurement": "solubility", "setting": "[1]; pH 7, as a sodium salt", "value": "> 4000", "unit": "µg/mL"}]}, {"compound": "COc1ccc(CCc2cnc3c(N)nc4cc(C(O)(P(=O)(O)O)P(=O)(O)O)ccc4c3c2)c(C)c1", "note": "[Compound 19A]", "values": [{"measurement": "EC50", "setting": "Human TLR7", "value": 23700, "unit": "nM"}]}, {"compound": "Cc1ccc(CCc2cnc3c(N)nc4ccccc4c3c2)c(C)c1", "note": "[Compound 47, 2-(2,4-dimethylphenethyl)benzo[f][1,7]naphthyridin-5-amine]", "values": [{"measurement": "amount of Compound 47 encapsulated in PLG particles", "setting": "[2]", "value": "> 90", "unit": "%"}, {"measurement": "protection of the immunized mice against strain NZ98", "setting": "MenB strain NZ98", "value": "significantly enhances the protection"}, {"measurement": "level of Compound 47 in serum", "setting": "[3]", "value": "< 1000", "unit": "nM"}, {"measurement": "serum cytokine levels (mKC, MCP-1, IL-6, IL-10, IFNg and IL-5)", "setting": "[4]", "value": "low serum cytokines"}]}]}
